From ChEMBL document CHEMBL1201862, “PubChem BioAssay data set” (2004)
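Interpolation was linear, between the two tested concentrations surrounding the appropriate level; five concentrations were tested over 48 hours in 96-well plates. Abbreviation: GI50, concentration required for 50% inhibition of growth.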 The source made the active and inactive calls. Cut-off read from the data, not from the text of the source: active = GI50 up to about 1.1 µM and inactive = higher.

Experiments:
Experiment in all cases: inhibition of tumour cell growth, NCI panel, 48 h
SF-295 = tested on: SF-295
HCT-15 = tested on: HCT-15
SF-539 = tested on: SF-539
T47D = tested on: T47D
MOLT-4 = tested on: MOLT-4
LOX IMVI = tested on: LOX IMVI
U-251 = tested on: U-251
SK-MEL-28 = tested on: SK-MEL-28
HOP-62 = tested on: HOP-62
SR = tested on: SR
NCI/ADR-RES = tested on: NCI/ADR-RES
HT-29 = tested on: HT-29
HCC 2998 = tested on: HCC 2998
SF-268 = tested on: SF-268
SNB-19 = tested on: SNB-19
786-0 = tested on: 786-0
Malme-3M = tested on: Malme-3M
HOP-92 = tested on: HOP-92
HCT-116 = tested on: HCT-116
NCI-H23 = tested on: NCI-H23

SMILES	GI50 (SF-295)	GI50 (HCT-15) [µM]	GI50 (SF-539)	GI50 (T47D)	GI50 (MOLT-4)	GI50 (LOX IMVI)	GI50 (U-251)	GI50 (SK-MEL-28)	GI50 (HOP-62)	GI50 (SR)	GI50 (NCI/ADR-RES)	GI50 (HT-29)	GI50 (HCC 2998)	GI50 (SF-268)	GI50 (SNB-19)	GI50 (786-0)	GI50 (Malme-3M)	GI50 (HOP-92)	GI50 (HCT-116)	GI50 (NCI-H23)
N#C/C(=C\c1ccc(Cl)cc1)c1nc(-c2cc3ccccc3oc2=O)cs1	44.4 µM (inactive)	> 100	39.8 µM (inactive)	44 µM (inactive)	> 100 µM (inactive)	59.6 µM (inactive)	30.8 µM (inactive)	95.9 µM (inactive)	24.8 µM (inactive)	> 100 µM (inactive)	39.6 µM (inactive)	> 100 µM (inactive)	57.5 µM (inactive)	34.8 µM (inactive)	43.6 µM (inactive)	30.3 µM (inactive)	41.7 µM (inactive)	15.7 µM (inactive)	67.6 µM (inactive)	
COc1ccc(C(=O)N2CCN(c3ccc4c(c3)OCC(=O)N4)CC2)cc1	> 100 µM (inactive)	> 100	> 100 µM (inactive)	> 100 µM (inactive)	> 100 µM (inactive)	> 100 µM (inactive)	> 100 µM (inactive)	> 100 µM (inactive)	> 100 µM (inactive)	67.3 µM (inactive)	> 100 µM (inactive)	> 100 µM (inactive)	> 100 µM (inactive)	> 100 µM (inactive)	> 100 µM (inactive)	> 100 µM (inactive)	> 100 µM (inactive)	> 100 µM (inactive)	> 100 µM (inactive)	> 100 µM (inactive)
CC(C)(C)[Si](C)(C)OCC1OC(n2ccc(=O)[nH]c2=O)C(O[Si](C)(C)C(C)(C)C)/C1=N/O (stereo unspecified)	4.74 µM (inactive)	3.26	3.11 µM (inactive)	6.22 µM (inactive)	2.43 µM (inactive)	4.67 µM (inactive)	4.25 µM (inactive)	3.3 µM (inactive)	4.63 µM (inactive)	2.71 µM (inactive)	2.49 µM (inactive)	2.84 µM (inactive)	3.37 µM (inactive)		4.49 µM (inactive)	2.64 µM (inactive)		2.77 µM (inactive)	2.45 µM (inactive)	3.44 µM (inactive)
O=P(O)(O)C=C=C1CCCCC1	> 100 µM (inactive)	> 100	> 100 µM (inactive)	> 100 µM (inactive)		> 100 µM (inactive)	> 100 µM (inactive)	> 100 µM (inactive)	> 100 µM (inactive)	> 100 µM (inactive)	> 100 µM (inactive)	> 100 µM (inactive)	> 100 µM (inactive)	> 100 µM (inactive)	> 100 µM (inactive)	> 100 µM (inactive)	> 100 µM (inactive)	> 100 µM (inactive)	> 100 µM (inactive)	> 100 µM (inactive)
C=CC1C(OC2OC(CO)C(O)C(O)C2O)OC=C(C(=O)OC)C1CC1CC(=O)CC(CCc2ccc(O)cc2)O1 (stereo unspecified)	> 100 µM (inactive)	> 100	> 100 µM (inactive)	> 100 µM (inactive)	> 100 µM (inactive)	> 100 µM (inactive)	> 100 µM (inactive)	> 100 µM (inactive)	> 100 µM (inactive)	> 100 µM (inactive)	> 100 µM (inactive)	> 100 µM (inactive)	> 100 µM (inactive)	> 100 µM (inactive)	> 100 µM (inactive)	> 100 µM (inactive)	> 100 µM (inactive)	> 100 µM (inactive)	> 100 µM (inactive)	> 100 µM (inactive)
CC(C)(C)c1ccc(O)c(C(c2ccc([N+](=O)[O-])cc2)c2cc(C(C)(C)C)ccc2O)c1	1.98 µM (inactive)	2.13	1.89 µM (inactive)	2.65 µM (inactive)	2.07 µM (inactive)		2.28 µM (inactive)	1.74 µM (inactive)	1.85 µM (inactive)	2.4 µM (inactive)	2.73 µM (inactive)	1.87 µM (inactive)	1.95 µM (inactive)	1.63 µM (inactive)	2.41 µM (inactive)	2.04 µM (inactive)		2.02 µM (inactive)	2.43 µM (inactive)	1.99 µM (inactive)
COc1ccc(C2=C(Cl)c3cc(OC)c(OC)cc3C2=O)cc1OC	> 100 µM (inactive)	6.9	21.3 µM (inactive)	2.95 µM (inactive)	3.63 µM (inactive)	12 µM (inactive)			15.3 µM (inactive)	6.11 µM (inactive)	21.9 µM (inactive)	5.38 µM (inactive)	22.6 µM (inactive)	18.9 µM (inactive)	> 100 µM (inactive)	3.43 µM (inactive)	13.2 µM (inactive)	1.8 µM (inactive)	4.22 µM (inactive)	12 µM (inactive)
COc1ccc(C(=O)c2c(-c3ccccc3NC(=O)C(F)(F)F)[nH]c3ccccc23)cc1	12.1 µM (inactive)	4.98	1.94 µM (inactive)	1.47 µM (inactive)	2.93 µM (inactive)	4.35 µM (inactive)	2.56 µM (inactive)	13.6 µM (inactive)	9.16 µM (inactive)	2.81 µM (inactive)	8.28 µM (inactive)	3.97 µM (inactive)	3.4 µM (inactive)	12.8 µM (inactive)	6.37 µM (inactive)		14.4 µM (inactive)	12.4 µM (inactive)	12.2 µM (inactive)	11.7 µM (inactive)
